#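 Grown in 96-well plates, cells were treated for 48 hours with each compound at five concentrations. Insufficient inhibition: endpoint recorded as highest concentration tested. TGI is the concentration that stops growth completely.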
# What was measured:
# Assay in all cases: growth of human tumour cells (NCI), 48 h
# [1] = system: SR leukemia
# [2] = system: OVCAR-4 ovarian
# [3] = system: HCT-15 colon
# [4] = system: OVCAR-8 ovarian
# [5] = system: UACC-257 melanoma
# [6] = system: IGROV1 ovarian
# [7] = system: CAKI-1 renal
# [8] = system: OVCAR-3 ovarian
# [9] = system: M14 melanoma
# [10] = system: ACHN renal
# [11] = system: MOLT-4 leukemia
# [12] = system: MDA-MB-231 breast
# [13] = system: K-562 leukemia
# [14] = system: 786-0 renal
# [15] = system: PC-3 prostate
# [16] = system: NCI-H226 lung
# [17] = system: NCI-H23 lung
# [18] = system: EKVX NSCLC
# [19] = system: SK-MEL-5 melanoma
# [20] = system: MDA-MB-435
# [21] = system: SK-OV-3 ovarian
# [22] = system: HS 578T breast
# [23] = system: SF-295 CNS
# [24] = system: LOX IMVI melanoma
# [25] = system: BT-549 breast
# [26] = system: HOP-62 NSCLC
# [27] = system: A498 renal
# [28] = system: MCF7 breast
# [29] = system: RXF 393 renal
# [30] = system: T-47D breast
# [31] = system: DU-145 prostate
# [32] = system: COLO 205 colon
# [33] = system: SK-MEL-2 melanoma
# [34] = system: SN12C renal
# [35] = system: RPMI-8226 leukemia
# [36] = system: MALME-3M melanoma
# [37] = system: NCI-H522 lung
# [38] = system: SK-MEL-28 melanoma
# [39] = system: TK-10 renal
# [40] = system: SW-620 colon
# [41] = system: HCT-116 colon
# [42] = system: U251 CNS
# [43] = system: HT29 colon
# [44] = system: A549 NSCLC
# [45] = system: CCRF-CEM leukemia
# [46] = system: UO-31 renal
# [47] = system: SNB-19 CNS
# [48] = system: NCI/ADR-RES ovarian
# [49] = system: SNB-75 CNS
# [50] = system: OVCAR-5 ovarian
# [51] = system: HCC-2998 colon
# [52] = system: KM12 colon
# [53] = system: UACC-62 melanoma
# [54] = system: MDA-N
# [55] = system: NCI-H460 lung
# [56] = system: HOP-92 NSCLC
# [57] = system: SF-539 CNS
# [58] = system: HL-60(TB) leukemia
# [59] = system: SF-268 CNS
compound,measurement,setting,value
CC(C)CC(=O)CC(O)C(Cl)(Cl)Cl (configuration not stated),TGI,[1],> 100 µM
same,TGI,[2],> 100 µM
same,TGI,[3],> 100 µM
same,TGI,[4],> 100 µM
same,TGI,[5],> 100 µM
same,TGI,[6],> 100 µM
same,TGI,[7],> 100 µM
same,TGI,[8],> 100 µM
same,TGI,[9],> 100 µM
same,TGI,[10],> 100 µM
same,TGI,[11],> 100 µM
same,TGI,[12],> 100 µM
same,TGI,[13],> 100 µM
same,TGI,[14],> 100 µM
same,TGI,[15],> 100 µM
same,TGI,[16],> 100 µM
same,TGI,[17],> 100 µM
same,TGI,[18],> 100 µM
same,TGI,[19],> 100 µM
same,TGI,[20],> 100 µM
same,TGI,[21],> 100 µM
same,TGI,[22],> 100 µM
same,TGI,[23],> 100 µM
same,TGI,[24],> 100 µM
same,TGI,[25],> 100 µM
same,TGI,[26],> 100 µM
same,TGI,[27],> 100 µM
same,TGI,[28],> 100 µM
same,TGI,[29],> 100 µM
same,TGI,[30],> 100 µM
same,TGI,[31],> 100 µM
same,TGI,[32],> 100 µM
same,TGI,[33],> 100 µM
same,TGI,[34],> 100 µM
same,TGI,[35],> 100 µM
same,TGI,[36],> 100 µM
same,TGI,[37],> 100 µM
same,TGI,[38],> 100 µM
same,TGI,[39],> 100 µM
same,TGI,[40],> 100 µM
same,TGI,[41],> 100 µM
same,TGI,[42],> 100 µM
same,TGI,[43],> 100 µM
same,TGI,[44],> 100 µM
same,TGI,[45],> 100 µM
same,TGI,[46],> 100 µM
same,TGI,[47],> 100 µM
same,TGI,[48],> 100 µM
same,TGI,[49],> 100 µM
same,TGI,[50],> 100 µM
same,TGI,[51],> 100 µM
same,TGI,[52],> 100 µM
same,TGI,[53],> 100 µM
same,TGI,[54],> 100 µM
Oc1ccc(SCc2ccc(NCc3ccccc3)cc2)cc1,TGI,[1],47.6 µM
same,TGI,[2],> 100 µM
same,TGI,[3],> 100 µM
same,TGI,[4],> 100 µM
same,TGI,[55],> 100 µM
same,TGI,[5],> 100 µM
same,TGI,[6],> 100 µM
same,TGI,[7],> 100 µM
same,TGI,[8],> 100 µM
same,TGI,[9],44.5 µM
same,TGI,[10],> 100 µM
same,TGI,[11],39.7 µM
same,TGI,[12],> 100 µM
same,TGI,[13],> 100 µM
same,TGI,[14],26.8 µM
same,TGI,[15],71.9 µM
same,TGI,[16],> 100 µM
same,TGI,[17],> 100 µM
same,TGI,[18],50.3 µM
same,TGI,[19],47.3 µM
same,TGI,[20],> 100 µM
same,TGI,[21],> 100 µM
same,TGI,[56],> 100 µM
same,TGI,[22],> 100 µM
same,TGI,[23],> 100 µM
same,TGI,[24],73.9 µM
same,TGI,[25],> 100 µM
same,TGI,[26],> 100 µM
same,TGI,[27],88 µM
same,TGI,[28],> 100 µM
same,TGI,[29],78.8 µM
same,TGI,[30],56.6 µM
same,TGI,[57],> 100 µM
same,TGI,[31],> 100 µM
same,TGI,[32],> 100 µM
same,TGI,[33],61.1 µM
same,TGI,[34],64.6 µM
same,TGI,[58],68.9 µM
same,TGI,[36],> 100 µM
same,TGI,[37],98.2 µM
same,TGI,[38],> 100 µM
same,TGI,[39],> 100 µM
same,TGI,[40],> 100 µM
same,TGI,[41],> 100 µM
same,TGI,[42],> 100 µM
same,TGI,[43],48.3 µM
same,TGI,[59],> 100 µM
same,TGI,[44],56.7 µM
same,TGI,[45],64.8 µM
same,TGI,[46],56.5 µM
same,TGI,[47],64.8 µM
same,TGI,[48],> 100 µM
same,TGI,[49],67.2 µM
same,TGI,[50],69.3 µM
same,TGI,[51],94.7 µM
same,TGI,[52],> 100 µM
same,TGI,[53],76.4 µM
same,TGI,[54],57.4 µM
